Test results: ChEMBL document CHEMBL1201862, “PubChem BioAssay data set” (2004)
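Cultured in 96-well plates, cells were exposed to test compound for 48 hours across five concentrations. GI50: concentration for 50% inhibition of growth.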 The source made the active and inactive calls. Cut-off read from the data, not from the text of the source: active = GI50 up to about 1.1 µM and inactive = higher.

Experiments:
Assay in all cases: inhibition of tumour cell growth, NCI panel, 48 h
UACC-257 = test system: UACC-257
COLO 205 = test system: COLO 205
MDA-MB-231 = test system: MDA-MB-231
RXF 393 = test system: RXF 393
LOX IMVI = test system: LOX IMVI
BT-549 = test system: BT-549
SF-268 = test system: SF-268
MDA-N = test system: MDA-N
HOP-92 = test system: HOP-92
M14 = test system: M14
HCT-116 = test system: HCT-116
UO-31 = test system: UO-31
EKVX = test system: EKVX
SW-620 = test system: SW-620
HOP-62 = test system: HOP-62
OVCAR-4 = test system: OVCAR-4
KM12 = test system: KM12
NCI-H226 = test system: NCI-H226
MCF7 = test system: MCF7
CCRF-CEM = test system: CCRF-CEM
SN12C = test system: SN12C
IGROV-1 = test system: IGROV-1
SK-MEL-2 = test system: SK-MEL-2
SK-OV-3 = test system: SK-OV-3
A549 = test system: A549
SK-MEL-5 = test system: SK-MEL-5
Hs-578T = test system: Hs-578T
Malme-3M = test system: Malme-3M
SNB-19 = test system: SNB-19
SNB-75 = test system: SNB-75
SR = test system: SR
HL-60 = test system: HL-60
CAKI-1 = test system: CAKI-1
NCI-H522 = test system: NCI-H522
NCI-H23 = test system: NCI-H23
SF-295 = test system: SF-295
U-251 = test system: U-251
DU-145 = test system: DU-145
OVCAR-3 = test system: OVCAR-3
A498 = test system: A498
786-0 = test system: 786-0
NCI/ADR-RES = test system: NCI/ADR-RES
SK-MEL-28 = test system: SK-MEL-28
HCC 2998 = test system: HCC 2998
HT-29 = test system: HT-29
TK-10 = test system: TK-10
NCI-H460 = test system: NCI-H460
RPMI-8226 = test system: RPMI-8226
K562 = test system: K562
OVCAR-5 = test system: OVCAR-5
MOLT-4 = test system: MOLT-4
ACHN = test system: ACHN
PC-3 = test system: PC-3
MDA-MB-435 = test system: MDA-MB-435
SF-539 = test system: SF-539
T47D = test system: T47D
OVCAR-8 = test system: OVCAR-8
HCT-15 = test system: HCT-15
UACC-62 = test system: UACC-62

For `C=CC(Br)(CBr)CCC1OC1(C)C` (configuration not stated), the GI50 (UACC-257) was 14.6 µM (inactive), the GI50 (COLO 205) was 18.7 µM (inactive) and the GI50 (MDA-MB-231) was 11.8 µM (inactive). For the same molecule, the GI50 (RXF 393) was 9.23 µM (inactive), the GI50 (LOX IMVI) was 5.47 µM (inactive) and the GI50 (BT-549) was 16.6 µM (inactive). For the same molecule, the GI50 (SF-268) was 16.7 µM (inactive), the GI50 (MDA-N) was 11.3 µM (inactive) and the GI50 (HOP-92) was 14.4 µM (inactive). For the same molecule, the GI50 (M14) was 13.9 µM (inactive), the GI50 (HCT-116) was 17 µM (inactive) and the GI50 (UO-31) was 18.2 µM (inactive). The GI50 (EKVX) was 20.3 µM (inactive), the GI50 (SW-620) was 13.1 µM (inactive) and the GI50 (HOP-62) was 18.9 µM (inactive). For the same molecule, the GI50 (OVCAR-4) was 16.3 µM (inactive), the GI50 (KM12) was 17.1 µM (inactive) and the GI50 (NCI-H226) was 19.8 µM (inactive). The GI50 (MCF7) was 14.1 µM (inactive), the GI50 (CCRF-CEM) was 29.9 µM (inactive) and the GI50 (SN12C) was 16.6 µM (inactive). The GI50 (IGROV-1) was 13.2 µM (inactive), the GI50 (SK-MEL-2) was 15.1 µM (inactive) and the GI50 (SK-OV-3) was 24.7 µM (inactive). For the same molecule, the GI50 (A549) was 23.1 µM (inactive), the GI50 (SK-MEL-5) was 14.2 µM (inactive) and the GI50 (Hs-578T) was 15 µM (inactive). The GI50 (Malme-3M) was 23.5 µM (inactive), the GI50 (SNB-19) was 17.3 µM (inactive) and the GI50 (SNB-75) was 17.2 µM (inactive). For the same molecule, the GI50 (SR) was 26.9 µM (inactive), the GI50 (HL-60) was 23.1 µM (inactive) and the GI50 (CAKI-1) was 19.5 µM (inactive). The GI50 (NCI-H522) was 17.2 µM (inactive), the GI50 (NCI-H23) was 16.3 µM (inactive) and the GI50 (SF-295) was 16.4 µM (inactive). The GI50 (U-251) was 17 µM (inactive), the GI50 (DU-145) was 25.3 µM (inactive) and the GI50 (OVCAR-3) was 19.5 µM (inactive). For the same molecule, the GI50 (A498) was 21.7 µM (inactive), the GI50 (786-0) was 15.7 µM (inactive) and the GI50 (NCI/ADR-RES) was 23.5 µM (inactive). The GI50 (SK-MEL-28) was 16.3 µM (inactive), the GI50 (HCC 2998) was 18.9 µM (inactive) and the GI50 (HT-29) was 17.4 µM (inactive). The GI50 (TK-10) was 20.2 µM (inactive), the GI50 (NCI-H460) was 14.2 µM (inactive) and the GI50 (RPMI-8226) was 20.4 µM (inactive). For the same molecule, the GI50 (K562) was 37.9 µM (inactive), the GI50 (OVCAR-5) was 18.9 µM (inactive) and the GI50 (MOLT-4) was 16.7 µM (inactive). For the same molecule, the GI50 (ACHN) was 18.2 µM (inactive), the GI50 (PC-3) was 16.5 µM (inactive) and the GI50 (MDA-MB-435) was 17.3 µM (inactive). The GI50 (SF-539) was 19.5 µM (inactive).
With `CC1CC/C(=C\c2ccc(Cl)cc2)C(=O)/C1=C\c1ccc(Cl)cc1` (configuration not stated) the GI50 (UACC-257) was 42.7 µM (inactive), the GI50 (COLO 205) was 32.1 µM (inactive) and the GI50 (MDA-MB-231) was 28.4 µM (inactive). For the same molecule, the GI50 (RXF 393) was 33.9 µM (inactive), the GI50 (LOX IMVI) was 31.8 µM (inactive) and the GI50 (BT-549) was 29.9 µM (inactive). The GI50 (SF-268) was 34.2 µM (inactive), the GI50 (MDA-N) was 51.2 µM (inactive) and the GI50 (T47D) was 58.9 µM (inactive). For the same molecule, the GI50 (HOP-92) was > 100 µM (inactive), the GI50 (M14) was 24 µM (inactive) and the GI50 (HCT-116) was 32.6 µM (inactive). For the same molecule, the GI50 (UO-31) was 36.4 µM (inactive), the GI50 (EKVX) was 26.4 µM (inactive) and the GI50 (SW-620) was 41.3 µM (inactive). The GI50 (HOP-62) was 25.6 µM (inactive), the GI50 (OVCAR-8) was 30.1 µM (inactive) and the GI50 (KM12) was 18.7 µM (inactive). The GI50 (MCF7) was 36.2 µM (inactive), the GI50 (CCRF-CEM) was 41.9 µM (inactive) and the GI50 (SN12C) was 30.8 µM (inactive). For the same molecule, the GI50 (IGROV-1) was 22.4 µM (inactive), the GI50 (SK-MEL-2) was 20.4 µM (inactive) and the GI50 (SK-OV-3) was > 100 µM (inactive). The GI50 (HCT-15) was 22.4 µM, the GI50 (A549) was 35.3 µM (inactive) and the GI50 (SK-MEL-5) was 20.4 µM (inactive). For the same molecule, the GI50 (Hs-578T) was 36.8 µM (inactive), the GI50 (SNB-19) was > 10 µM (inactive) and the GI50 (SNB-75) was 49.2 µM (inactive). The GI50 (CAKI-1) was 20.3 µM (inactive), the GI50 (U-251) was 39.9 µM (inactive) and the GI50 (DU-145) was 49.2 µM (inactive). The GI50 (A498) was 1.63 µM (inactive), the GI50 (786-0) was 34.1 µM (inactive) and the GI50 (SK-MEL-28) was 53.1 µM (inactive). The GI50 (HT-29) was 30.9 µM (inactive), the GI50 (TK-10) was 29.1 µM (inactive) and the GI50 (UACC-62) was 25.4 µM (inactive). For the same molecule, the GI50 (K562) was 41 µM (inactive), the GI50 (OVCAR-5) was 21.6 µM (inactive) and the GI50 (ACHN) was 32.9 µM (inactive). For the same molecule, the GI50 (PC-3) was 34.4 µM (inactive) and the GI50 (MDA-MB-435) was 36.8 µM (inactive).
With `CCOC(=O)CCC(NC(=O)OCc1ccccc1)C(=O)NC(CCC(=O)OCC)C(=O)NC(CCC(=O)OCC)C(=O)NC(CCC(=O)OCC)C(=O)NC(CCC(=O)OCC)C(=O)OCC` (configuration not stated) the GI50 (UACC-257) was > 100 µM (inactive), the GI50 (COLO 205) was > 100 µM (inactive) and the GI50 (RXF 393) was > 100 µM (inactive). For the same molecule, the GI50 (LOX IMVI) was > 100 µM (inactive), the GI50 (BT-549) was > 100 µM (inactive) and the GI50 (MDA-N) was > 100 µM (inactive). For the same molecule, the GI50 (T47D) was > 100 µM (inactive), the GI50 (M14) was > 100 µM (inactive) and the GI50 (HCT-116) was > 100 µM (inactive). The GI50 (UO-31) was > 100 µM (inactive), the GI50 (EKVX) was > 100 µM (inactive) and the GI50 (SW-620) was > 100 µM (inactive). The GI50 (HOP-62) was > 100 µM (inactive), the GI50 (OVCAR-4) was > 100 µM (inactive) and the GI50 (OVCAR-8) was > 100 µM (inactive). The GI50 (KM12) was > 100 µM (inactive), the GI50 (MCF7) was > 100 µM (inactive) and the GI50 (CCRF-CEM) was > 100 µM (inactive). The GI50 (SN12C) was > 100 µM (inactive), the GI50 (IGROV-1) was > 100 µM (inactive) and the GI50 (SK-MEL-2) was > 100 µM (inactive). For the same molecule, the GI50 (SK-OV-3) was > 100 µM (inactive), the GI50 (HCT-15) was greater than 100 µM and the GI50 (A549) was > 100 µM (inactive). For the same molecule, the GI50 (SK-MEL-5) was > 100 µM (inactive), the GI50 (Hs-578T) was > 100 µM (inactive) and the GI50 (Malme-3M) was > 100 µM (inactive). The GI50 (SNB-75) was > 100 µM (inactive), the GI50 (SR) was > 100 µM (inactive) and the GI50 (CAKI-1) was > 100 µM (inactive). For the same molecule, the GI50 (NCI-H522) was > 100 µM (inactive), the GI50 (NCI-H23) was > 100 µM (inactive) and the GI50 (SF-295) was > 100 µM (inactive). The GI50 (U-251) was > 100 µM (inactive), the GI50 (DU-145) was > 100 µM (inactive) and the GI50 (786-0) was > 100 µM (inactive). The GI50 (NCI/ADR-RES) was > 100 µM (inactive), the GI50 (SK-MEL-28) was > 100 µM (inactive) and the GI50 (HT-29) was > 100 µM (inactive). The GI50 (TK-10) was > 100 µM (inactive), the GI50 (NCI-H460) was > 100 µM (inactive) and the GI50 (RPMI-8226) was > 100 µM (inactive). The GI50 (UACC-62) was > 100 µM (inactive), the GI50 (OVCAR-5) was > 100 µM (inactive) and the GI50 (MOLT-4) was > 100 µM (inactive). The GI50 (ACHN) was > 100 µM (inactive), the GI50 (PC-3) was > 100 µM (inactive) and the GI50 (MDA-MB-435) was > 100 µM (inactive).
